Test results: ChEMBL document CHEMBL1140254, “A novel [99mTc[triple bond]N]2+ complex of metronidazole xanthate as a potential agent for targeting hypoxia” (Bioorg Med Chem Lett, 2005)

What was measured:
[1] = Biodistribution of the labeled compound in mice liver 180 min after post-injection; format: ADME, organism-based; settings: mouse, in vivo, 3 h
[2] = Biodistribution of the labeled compound in mice kidney 60 min after post-injection; format: ADME, organism-based; settings: mouse, in vivo, 1 h
[3] = Biodistribution of the labeled compound in mice muscle 180 min after post-injection; format: ADME, organism-based, Muscle tissue; settings: mouse, in vivo, 3 h
[4] = Biodistribution of the labeled compound in mice kidney 180 min after post-injection; format: ADME, organism-based; settings: mouse, in vivo, 3 h
[5] = Biodistribution of the labeled compound in mice spleen 60 min after post-injection; format: ADME, organism-based; settings: mouse, in vivo, 1 h
[6] = species on record: Mus musculus; test: Tumor/muscle ratio of the label compound in mice 180 min after post injection; format: functional, Muscle tissue
[7] = Biodistribution of the labeled compound in mice lungs 30 min after post-injection; format: ADME, organism-based, Lung; settings: mouse, in vivo, 0.5 h
[8] = Biodistribution of the labeled compound in mice bone 60 min after post-injection; format: ADME, organism-based, Bone element; settings: mouse, in vivo, 1 h
[9] = Biodistribution of the labeled compound in mice tumor 60 min after post-injection at adose 1.44 g; format: ADME, organism-based; settings: mouse, in vivo, 1 h
[10] = Biodistribution of the labeled compound in mice liver 30 min after post-injection; format: ADME, organism-based; settings: mouse, in vivo, 0.5 h
[11] = Biodistribution of the labeled compound in mice blood 30 min after post-injection; format: ADME, organism-based; settings: mouse, in vivo, 0.5 h
[12] = Biodistribution of the labeled compound in mice heart 60 min after post-injection; format: ADME, organism-based; settings: mouse, in vivo, 1 h
[13] = Biodistribution of the labeled compound in mice int+GB 180 min after post-injection; format: ADME, organism-based; settings: mouse, in vivo, 3 h
[14] = Biodistribution of the labeled compound in mice bone 30 min after post-injection; format: ADME, organism-based, Bone element; settings: mouse, in vivo, 0.5 h
[15] = species on record: Mus musculus; test: Tumor/blood ratio of the label compound in mice 180 min after post injection; format: functional
[16] = Biodistribution of the labeled compound in mice int+GB 60 min after post-injection; format: ADME, organism-based; settings: mouse, in vivo, 1 h
[17] = Biodistribution of the labeled compound in mice blood 180 min after post-injection; format: ADME, organism-based; settings: mouse, in vivo, 3 h
[18] = Biodistribution of the labeled compound in mice Muscle 30 min after post-injection; format: ADME, organism-based, Muscle tissue; settings: mouse, in vivo, 0.5 h
[19] = Biodistribution of the labeled compound in mice kidney 30 min after post-injection; format: ADME, organism-based; settings: mouse, in vivo, 0.5 h
[20] = Biodistribution of the labeled compound in mice bone 180 min after post-injection; format: ADME, organism-based, Bone element; settings: mouse, in vivo, 3 h
[21] = Biodistribution of the labeled compound in mice muscle 60 min after post-injection; format: ADME, organism-based, Muscle tissue; settings: mouse, in vivo, 1 h
[22] = Biodistribution of the labeled compound in mice spleen 30 min after post-injection; format: ADME, organism-based; settings: mouse, in vivo, 0.5 h
[23] = Biodistribution of the labeled compound in mice tumor 180 min after post-injection at adose 1.36 g; format: ADME, organism-based; settings: mouse, in vivo, 3 h
[24] = Biodistribution of the labeled compound in mice tumor 30 min after post-injection at a dose of 1.42 g; format: ADME, organism-based; settings: mouse, in vivo, 0.5 h
[25] = Biodistribution of the labeled compound in mice heart 180 min after post-injection; format: ADME, organism-based; settings: mouse, in vivo, 3 h
[26] = Biodistribution of the labeled compound in mice stomach 60 min after post-injection; format: ADME, organism-based; settings: mouse, in vivo, 1 h
[27] = Biodistribution of the labeled compound in mice lungs 60 min after post-injection; format: ADME, organism-based, Lung; settings: mouse, in vivo, 1 h
[28] = Biodistribution of the labeled compound in mice int +GB 30 min after post-injection; format: ADME, organism-based; settings: mouse, in vivo, 0.5 h
[29] = Biodistribution of the labeled compound in mice spleen 180 min after post-injection; format: ADME, organism-based; settings: mouse, in vivo, 3 h
[30] = species on record: Mus musculus; test: Tumor/muscle ratio of the label compound in mice 30 min after post injection; format: functional, Muscle tissue
[31] = species on record: Mus musculus; test: Tumor/blood ratio of the label compound in mice 30 min after post injection; format: functional
[32] = Biodistribution of the labeled compound in mice stomach 180 min after post-injection; format: ADME, organism-based; settings: mouse, in vivo, 3 h
[33] = species on record: Mus musculus; test: Tumor/blood ratio of the label compound in mice 60 min after post injection; format: functional
[34] = Biodistribution of the labeled compound in mice stomach 30 min after post-injection; format: ADME, organism-based; settings: mouse, in vivo, 0.5 h
[35] = Biodistribution of the labeled compound in mice lungs 180 min after post-injection; format: ADME, organism-based, Lung; settings: mouse, in vivo, 3 h
[36] = Biodistribution of the labeled compound in mice liver 60 min after post-injection; format: ADME, organism-based; settings: mouse, in vivo, 1 h
[37] = Biodistribution of the labeled compound in mice heart 30 min after post-injection; format: ADME, organism-based; settings: mouse, in vivo, 0.5 h
[38] = species on record: Mus musculus; test: Tumor/muscle ratio of the label compound in mice 60 min after post injection; format: functional, Muscle tissue
[39] = Biodistribution of the labeled compound in mice blood 60 min after post-injection; format: ADME, organism-based; settings: mouse, in vivo, 1 h

Cc1ncc([N+](=O)[O-])n1CCOC(=S)[S-].[Na+] [METRONIDAZOLE XANTHATE]
Biodistribution [1]: 18.37
Biodistribution [2]: 3.18
Biodistribution [3]: 4.2
Biodistribution [4]: 2.87
Biodistribution [5]: 0.34
Ratio [6]: 3.35
Biodistribution [7]: 1.59
Biodistribution [8]: 2.43
Biodistribution [9]: 0.43
Biodistribution [10]: 29.32
Biodistribution [11]: 11.45
Biodistribution [12]: 0.27
Biodistribution [13]: 32.52
Biodistribution [14]: 2.59
Ratio [15]: 0.62
Biodistribution [16]: 20.19
Biodistribution [17]: 3.95
Biodistribution [18]: 11.19
Biodistribution [19]: 4.25
Biodistribution [20]: 2.27
Biodistribution [21]: 6.43
Biodistribution [22]: 0.25
Biodistribution [23]: 0.41
Biodistribution [24]: 0.4
Biodistribution [25]: 0.27
Biodistribution [26]: 0.74
Biodistribution [27]: 1.09
Biodistribution [28]: 12.46
Biodistribution [29]: 0.27
Ratio [30]: 1.19
Ratio [31]: 0.2
Biodistribution [32]: 0.71
Ratio [33]: 0.36
Biodistribution [34]: 1.68
Biodistribution [35]: 0.75
Biodistribution [36]: 23.53
Biodistribution [37]: 0.38
Ratio [38]: 2.15
Biodistribution [39]: 6.75
